# Test results published in ChEMBL document CHEMBL6134907, “Synthesis of 5,9- and 5,8-Diaminoalkoxy Substituted Benzophenanthridinone Analogues as Tyrosyl-DNA Phosphodiesterase 1 Inhibitors and Their Radiosensitizing Activity” (J Med Chem, 2025).
# Active and inactive are the calls of the source. No cut-off for these calls is given here.
# Assays:
# [1] = Acute toxicity in Kunming mouse assessed as survival at 150 to 600 mg/kg, ip single dose measured after 7 days; format: organism-based; conditions: in vivo, 168 h, dose 150-600 mg/kg, time 7 day
# [2] = Tmax in male Sprague-Dawley rat at 1 mg/kg, iv measured up to 24 hrs by LCMS-MS analysis; format: ADME, organism-based; conditions: in vivo
# [3] = Cmax in male Sprague-Dawley rat at 5 mg/kg, IG measured up to 24 hrs by LCMS-MS analysis; format: ADME, organism-based; conditions: in vivo, po
# [4] = AUClast in male Sprague-Dawley rat at 5 mg/kg, IG measured up to 24 hrs by LCMS-MS analysis; format: ADME, organism-based; conditions: in vivo, po
# [5] = AUC infinity in male Sprague-Dawley rat at 5 mg/kg, IG measured up to 24 hrs by LCMS-MS analysis; format: ADME, organism-based; conditions: in vivo, po
# [6] = MRT infinity in male Sprague-Dawley rat at 5 mg/kg, IG measured up to 24 hrs by LCMS-MS analysis; format: ADME, organism-based; conditions: in vivo, po
# [7] = Oral bioavailability in male Sprague-Dawley rat at 5 mg/kg measured up to 24 hrs by LCMS-MS analysis; format: ADME, organism-based; conditions: in vivo
# HCT-116 [8] = assay: Anti-tumor activity against human HCT-116 cells xenografted in BALB/c mouse assessed as tumor growth inhibition at 10 mg/kg, ip every day for 14 days; format: functional, organism-based; conditions: time 14.0 day
# HCT-116 [9] = assay: In vivo radiosensitizing activity in human HCT-116 cells xenografted in BALB/c mouse assessed as sensitization of 1 GY ionizing radiation induced tumor growth inhibition at 10 mg/kg, ip every day for 14 days radiated for every 2 days once; format: functional, organism-based; conditions: time 14.0 day
# [10] = Toxicity in BALB/c mouse xenografted with human HCT-116 cells assessed as change in liver weight at 1 to 10 mg/kg, ip every day for 14 days; format: organism-based; conditions: in vivo, 336 h, dose 1-10 mg/kg, time 14 day
# [11] = Toxicity in BALB/c mouse xenografted with human HCT-116 cells assessed as change in heart weight at 1 to 10 mg/kg, ip every day for 14 days radiated for every 2 days once; format: organism-based; conditions: in vivo, 336 h, dose 1-10 mg/kg, time 14 day
# [12] = Toxicity in BALB/c mouse xenografted with human HCT-116 cells assessed as change in liver weight at 1 to 10 mg/kg, ip every day for 14 days radiated for every 2 days once; format: organism-based; conditions: in vivo, 336 h, dose 1-10 mg/kg, time 14 day
# [13] = Toxicity in BALB/c mouse xenografted with human HCT-116 cells assessed as change in spleen weight at 1 to 10 mg/kg, ip every day for 14 days radiated for every 2 days once; format: organism-based; conditions: in vivo, 336 h, dose 1-10 mg/kg, time 14 day
# [14] = target: Tyrosyl-DNA phosphodiesterase 1 (Homo sapiens, UniProt Q9NUW8); assay: Inhibition of TDP1 in human SgTDP1-HCT-116 cells (TDP1 knockout) at 1.11 mM; format: cell-based
# HCT-116 [15] = assay: Synergistic cytotoxicity against human HCT116 cells assessed as combination index at 1 uM incubated for 48 hrs in presence of 2GY ionizing radiation (IR); format: functional
# HCT-116 [16] = assay: Reduction of XRCC4 expression in wild type human HCT-116 cells assessed as reduction in protein level at 5 to 10 uM measured after 24 hrs by Western blot analysis; format: functional, cell-based; conditions: dose 5-10 µM
# HCT-116 [17] = assay: Reduction of XRCC4 expression in wild type human HCT-116 cells assessed as reduction in protein level at 5 to 10 uM radiated with 4 GY ionizing radiation (IR) measured after 24 hrs by Western blot analysis; format: functional, cell-based; conditions: dose 5-10 µM
# HCT-116 [18] = assay: Effect on Ku70/80 expression in wild type human HCT-116 cells assessed as change in protein level at 5 to 10 uM measured after 24 hrs by Western blot analysis; format: functional, cell-based; conditions: dose 5-10 µM
# HCT-116 [19] = assay: Effect on Ku70/80 expression in wild type human HCT-116 cells assessed as change in mRNA level at 5 to 10 uM radiated with 4 GY ionizing radiation (IR) measured after 24 hrs by qRT-PCR analysis; format: functional, cell-based; conditions: dose 5-10 µM
# HCT-116 [20] = assay: Effect on Lig4 expression in wild type human HCT-116 cells assessed as change in mRNA level at 5 to 10 uM radiated with 4 GY ionizing radiation (IR) measured after 24 hrs by qRT-PCR analysis; format: functional, cell-based; conditions: dose 5-10 µM
# HCT-116 [21] = assay: Reduction in recruitment of XRCC4 at damage site of human HCT-116 cells at 5 uM measured after 3 hrs by fluorescence colocalization assay; format: functional, cell-based
# HCT-116 [22] = assay: Induction of PIG3 transcription level in human HCT-116 cells measured after 24 hrs treated with 4 GY ionizing radiation (IR); format: functional, cell-based; conditions: dose 5-10 µM
# HCT-116 [23] = assay: Induction of cell cycle arrest in human HCT-116 cells assessed as accumulation of cells at G0/G1 phase at 5 uM measured after 24 hrs by Propidium iodide (PI) staining based assay (reference value: 69.35%); format: functional
# HCT-116 [24] = assay: Induction of cell cycle arrest in human HCT-116 cells assessed as accumulation of cells at G2/M phase at 5 uM measured after 24 hrs by Propidium iodide (PI) staining based assay (reference value: 15.77%); format: functional
# HCT-116 [25] = assay: Induction of cell cycle arrest in human HCT-116 cells assessed as accumulation of cells at S phase at 10 uM measured after 24 hrs by Propidium iodide (PI) staining based assay (reference value: 13.96%); format: functional
# [26] = Induction of 4GY ionizing radiation (IR) induced cell cycle arrest in human HCT-116 cells assessed as accumulation of cells at G0/G1 phase at 5 uM measured after 24 hrs by Propidium iodide (PI) staining based assay (reference value: 65.99%); format: functional
# [27] = Induction of 4GY ionizing radiation (IR) induced cell cycle arrest in human HCT-116 cells assessed as accumulation of cells at S phase at 5 uM measured after 24 hrs by Propidium iodide (PI) staining based assay (reference value: 11.48%); format: functional
# [28] = Induction of 4GY ionizing radiation (IR) induced cell cycle arrest in human HCT-116 cells assessed as accumulation of cells at S phase at 10 uM measured after 24 hrs by Propidium iodide (PI) staining based assay (reference value: 11.48%); format: functional
# HCT-116 [29] = assay: Induction of apoptosis in human HCT-116 cells assessed as viable cells at 10 uM measured after 24 hrs by FITC Annexin V/PI apoptosis detection assay (reference value: 99.71%); format: functional; conditions: read-out: Activity
# HCT-116 [30] = assay: Induction of apoptosis in human HCT-116 cells assessed as late apoptotic cells at 10 uM measured after 24 hrs by FITC Annexin V/PI apoptosis detection assay (reference value: 0%); format: functional
# HCT-116 [31] = assay: Induction of 4GY ionizing radiation (IR) induced apoptosis in human HCT-116 cells assessed as late apoptotic cells at 5 uM measured after 24 hrs by FITC Annexin V/PI apoptosis detection assay (reference value: 14.32%); format: functional
# HCT-116 [32] = assay: Induction of 4GY ionizing radiation (IR) induced apoptosis in human HCT-116 cells assessed as viable cells at 10 uM measured after 24 hrs by FITC Annexin V/PI apoptosis detection assay (reference value: 66.88%); format: functional; conditions: read-out: Activity
# HCT-116 [33] = assay: Induction of apoptosis in human HCT-116 cells assessed as induction of 4GY ionizing radiation (IR) induced cleaved Caspase-3 at 5 uM measured after 24 hrs by Western blot analysis; format: functional, cell-based
# Sequence of Tyrosyl-DNA phosphodiesterase 1 (Q9NUW8 whole entry): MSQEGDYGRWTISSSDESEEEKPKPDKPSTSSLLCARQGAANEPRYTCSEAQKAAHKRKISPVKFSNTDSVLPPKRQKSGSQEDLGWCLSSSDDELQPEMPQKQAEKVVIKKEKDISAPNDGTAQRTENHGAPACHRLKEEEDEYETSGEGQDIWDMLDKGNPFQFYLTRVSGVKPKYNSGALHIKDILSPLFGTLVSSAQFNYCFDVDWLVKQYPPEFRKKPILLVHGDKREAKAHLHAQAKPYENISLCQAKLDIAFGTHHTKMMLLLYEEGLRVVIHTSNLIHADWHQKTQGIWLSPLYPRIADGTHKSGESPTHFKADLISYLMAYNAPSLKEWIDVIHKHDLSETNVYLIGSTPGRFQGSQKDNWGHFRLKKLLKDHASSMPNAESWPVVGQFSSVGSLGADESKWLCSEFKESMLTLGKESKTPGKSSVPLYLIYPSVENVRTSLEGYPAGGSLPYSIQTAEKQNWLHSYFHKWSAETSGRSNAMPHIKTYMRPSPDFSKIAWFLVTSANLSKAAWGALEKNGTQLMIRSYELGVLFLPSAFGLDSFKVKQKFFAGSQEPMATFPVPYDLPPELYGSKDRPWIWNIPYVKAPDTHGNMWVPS
smiles,measurement,setting,value
COc1cc2c(=O)n(CCN(C)C)c3c4cc5c(cc4ccc3c2cc1OCCN1CCOCC1)OCO5,Activity,[1],Non-toxic
same,Tmax,[2],4.98 min
same,Cmax,[3],70.3 ng/mL
same,AUC(0-t) at 24 h,[4],779 ng·h/mL
same,AUC(0-inf),[5],735 ng·h/mL
same,MRT inf,[6],7.06 h
same,bioavailability,[7],63.1%
same,TGI,HCT-116 [8],inactive
same,TGI,HCT-116 [9],Active
same,Activity,[10],Non-toxic
same,Activity,[11],Non-toxic
same,Activity,[12],Non-toxic
same,Activity,[13],Non-toxic
same,inhibition,[14],inactive
same,Activity,HCT-116 [15],28%
same,Activity,HCT-116 [16],Active
same,Activity,HCT-116 [17],Active
same,Activity,HCT-116 [18],inactive
same,Activity,HCT-116 [19],inactive
same,Activity,HCT-116 [20],inactive
same,Activity,HCT-116 [21],Active
same,Activity,HCT-116 [22],Dose-dependent-effect
same,Activity,HCT-116 [23],69.89%
same,Activity,HCT-116 [24],18.4%
same,Activity,HCT-116 [25],10.2%
same,Activity,[26],44.18%
same,Activity,[27],11.88%
same,Activity,[28],12.88%
same,viability at 10 µM,HCT-116 [29],72.1%
same,Activity,HCT-116 [30],13.67%
same,Activity,HCT-116 [31],18.62%
same,viability at 10 µM,HCT-116 [32],55.5%
same,Activity,HCT-116 [33],Active
